Assay results published in patent publication US20170107229A1, “SUBSTITUTED TETRAHYDROPYRIDOTHIENOPYRIMIDINES” (BAYER PHARMA AKTIENGESELLSCHAFT, priority 2014, published 2017).

Target: T1, human full-length MKNK1 (Homo sapiens, UniProt Q9BUB5, T385D)
T1 construct: GST (N); purchased Carna Biosciences 02-145; host or cells: insect cells (baculovirus expression system)
Assay: MKNK1 kinase high ATP assay (TR-FRET)
Assay type: biochemical
Settings: high ATP (2 mM final), 15 min preincubation with enzyme, GST-MKNK1 (T344D)
Method: MKNK1-inhibitory activity at high ATP of compounds of the present invention after their preincubation with MKNK1 was quantified employing the TR-FRET-based MKNK1 high ATP assay as described in the following paragraphs.
A recombinant fusion protein of Glutathione-S-Transferase (GST, N-terminally) and human full-length MKNK1 (amino acids 1-424 and T344D of accession number BAA 19885.1), expressed in insect cells using baculovirus expression system and purified via glutathione sepharose affinity chromatography, was purchased from Carna Biosciences (product no 02-145) and used as enzyme. As substrate for the kinase reaction the biotinylated peptide biotin-Ahx-IKKRKLTRRKSLKG (C-terminus in amide form) was used, which can be purchased e.g. from the company Biosyntan (Berlin-Buch, Germany).
For the assay 50 nL of a 100fold concentrated solution of the test compound in DMSO was pipetted into a black low volume 384well microtiter plate (Greiner Bio-One, Frickenhausen, Germany), 2 μL of a solution of MKNK1 in aqueous assay buffer [50 mM HEPES pH 7.5, 5 mM MgCl2, 1.0 mM dithiothreitol, 0.005% (v/v) Nonidet-P40 (Sigma)] was added and the mixture was incubated for 15 min at 22° C. to allow pre-binding of the test compounds to the enzyme before the start of the kinase reaction. Then the kinase reaction was started by the addition of 3 μL of a solution of adenosine-tri-phosphate (ATP, 3.3 mM=>final conc. in the 5 μL assay volume is 2 mM) and substrate (0.1 μM=>final conc. in the 5 μL assay volume is 0.06 μM) in assay buffer and the resulting mixture was incubated for a reaction time of 30 min at 22° C. The concentration of MKNK1 was adjusted depending of the activity of the enzyme lot and was chosen appropriate to have the assay in the linear range, typical concentrations were in the range of 0.003 μg/mL. The reaction was stopped by the addition of 5 μL of a solution of TR-FRET detection reagents (5 nM streptavidine-XL665 [Cisbio Bioassays, Codolet, France] and 1 nM anti-ribosomal protein S6 (pSer236)-antibody from Invitrogen [#44921G] and 1 nM LANCE EU-W1024 labeled ProteinG [Perkin-Elmer, product no. AD0071]) in an aqueous EDTA-solution (100 mM EDTA, 0.1% (w/v) bovine serum albumin in 50 mM HEPES pH 7.5).
The resulting mixture was incubated for 1 h at 22° C. to allow the formation of complex between the phosphorylated biotinylated peptide and the detection reagents. Subsequently the amount of phosphorylated substrate was evaluated by measurement of the resonance energy transfer from the Eu-chelate to the streptavidine-XL. Therefore, the fluorescence emissions at 620 nm and 665 nm after excitation at 350 nm were measured in a TR-FRET reader, e.g. a Rubystar (BMG Labtechnologies, Offenburg, Germany) or a Viewlux (Perkin-Elmer). The ratio of the emissions at 665 nm and at […] was taken as the measure for the amount of phosphorylated substrate. The data were normalised (enzyme reaction without inhibitor=0% inhibition, all other assay components but no enzyme=100% inhibition).

T1 sequence (Q9BUB5 1-424 isoform Q9BUB5-2 T344D): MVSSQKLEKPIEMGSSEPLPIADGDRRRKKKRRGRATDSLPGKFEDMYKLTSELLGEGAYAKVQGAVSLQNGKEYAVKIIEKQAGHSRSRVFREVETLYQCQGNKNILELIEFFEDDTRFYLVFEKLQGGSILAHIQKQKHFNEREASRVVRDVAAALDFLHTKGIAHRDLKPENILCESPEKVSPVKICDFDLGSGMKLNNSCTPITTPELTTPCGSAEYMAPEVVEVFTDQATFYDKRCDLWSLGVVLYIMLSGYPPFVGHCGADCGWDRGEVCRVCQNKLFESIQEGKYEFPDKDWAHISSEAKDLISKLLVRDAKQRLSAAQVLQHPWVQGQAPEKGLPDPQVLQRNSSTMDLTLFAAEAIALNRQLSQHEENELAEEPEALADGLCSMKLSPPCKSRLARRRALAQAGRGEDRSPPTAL

IC50 [nM] | Compound
11 | COc1cc2[nH]ncc2cc1Nc1ncnc2sc3c(c12)CCN(C(=O)c1ccn(C)n1)C3 [Example 103, {4-[(6-Methoxy-1H-indazol-5-yl)amino]-5,8-dihydropyrido[4′,3′:4,5]thieno[2,3-d]pyrimidin-7(6H)-yl}(1-methyl-1H-pyrazol-3-yl)methanone]
5 | COc1cc2[nH]ncc2cc1Nc1ncnc2sc3c(c12)CCN(C(=O)c1ccno1)C3 [Example 102, {4-[(6-Methoxy-1H-indazol-5-yl)amino]-5,8-dihydropyrido[4′,3′:4,5]thieno[2,3-d]pyrimidin-7(6H)-yl}(1,2-oxazol-5-yl)methanone]
10 | COc1cc2[nH]ncc2cc1Nc1ncnc2sc3c(c12)CCN(C(=O)c1ccc(Cl)n1C)C3 [Example 76, (5-Chloro-1-methyl-1H-pyrrol-2-yl){4-[(6-methoxy-1H-indazol-5-yl)amino]-5,8-dihydropyrido[4′,3′:4,5]thieno[2,3-d]pyrimidin-7(6H)-yl}methanone]
6 | COc1cc2[nH]ncc2cc1Nc1ncnc2sc3c(c12)CCN(C(=O)OC(C)(C)C)C3 [Example 4, tert-Butyl 4-[(6-methoxy-1H-indazol-5-yl)amino]-5,8-dihydropyrido[4′,3′:4,5]thieno[2,3-d]pyrimidine-7(6H)-carboxylate]
11 | COc1cc2[nH]ncc2cc1Nc1ncnc2sc3c(c12)CCN(Cc1ccn(C)n1)C3 [Example 98, N-(6-Methoxy-1H-indazol-5-yl)-7-[(1-methyl-1H-pyrazol-3-yl)methyl]-5,6,7,8-tetrahydropyrido[4′,3′:4,5]thieno[2,3-d]pyrimidin-4-amine]
16 | COc1cc2[nH]ncc2cc1Nc1ncnc2sc3c(c12)CCN(CCCN1CCOCC1=O)C3 [Example 87, 4-(3-{4-[(6-Methoxy-1H-indazol-5-yl)amino]-5,8-dihydropyrido[4′,3′:4,5]thieno[2,3-d]pyrimidin-7(6H)-yl}propyl)morpholin-3-one]
5 | COc1nc2[nH]ncc2cc1Nc1ncnc2sc3c(c12)CCN(C(=O)N(C)C)C3 [Example 65, 4-[(6-Methoxy-1H-pyrazolo[3,4-b]pyridin-5-yl)amino]-N,N-dimethyl-5,8-dihydropyrido[4′,3′:4,5]thieno[2,3-d]pyrimidine-7(6H)-carboxamide]
28 | O=C(N1CCOCC1)N1CCc2c(sc3ncnc(Nc4cc5cn[nH]c5cn4)c23)C1 [Example 24, Morpholin-4-yl[4-(1H-pyrazolo[3,4-c]pyridin-5-ylamino)-5,8-dihydropyrido[4′,3′:4,5]thieno[2,3-d]pyrimidin-7(6H)-yl]methanone]
40 | COc1nc2[nH]ncc2cc1Nc1ncnc2sc3c(c12)CCN(S(C)(=O)=O)C3 [Example 50, N-(6-Methoxy-1H-pyrazolo[3,4-b]pyridin-5-yl)-7-(methylsulfonyl)-5,6,7,8-tetrahydropyrido[4′,3′:4,5]thieno[2,3-d]pyrimidin-4-amine]
4 | COc1cc2[nH]ncc2cc1Nc1ncnc2sc3c(c12)CCN(C(=O)N(C)C)C3 [Example 16, 4-[(6-Methoxy-1H-indazol-5-yl)amino]-N,N-dimethyl-5,8-dihydropyrido[4′,3′:4,5]thieno[2,3-d]pyrimidine-7(6H)-carboxamide]
37 | CN(C)C(=O)N1CCc2c(sc3ncnc(Nc4cc5cn[nH]c5cc4Br)c23)C1 [Example 29, 4-[(6-Bromo-1H-indazol-5-yl)amino]-N,N-dimethyl-5,8-dihydropyrido[4′,3′:4,5]thieno[2,3-d]pyrimidine-7(6H)-carboxamide]
98 | c1nc(Nc2cc3cn[nH]c3cn2)c2c3c(sc2n1)CN(CCN1CCOCC1)CC3 [Example 60, 7-[2-(Morpholin-4-yl)ethyl]-N-(1H-pyrazolo[3,4-c]pyridin-5-yl)-5,6,7,8-tetrahydropyrido[4′,3′:4,5]thieno[2,3-d]pyrimidin-4-amine]
